Experimental data from US20100305159A1, “CRYSTALLINE FORM OF PIPERIDINE COMPOUND” (MITSUBISHI TANABE PHARMA CORPORATION, priority 2007, published 2010).
pIC50, pKi: −log10 of the molar value. Entries after “also recorded” stand apart in the source; their conditions may differ.

Key:
[1] = Stability at 40° C./75% RH in a glass bottle with an open state for 4 weeks; format: physicochemical
Description: Stabilities of crystalline forms of Type I, Type II and Type VII, and amorphous of (2R,4S)-1-{N-(3,5-bistri-fluoromethylbenzyl)-N-methyl}aminocarbonyl-2-(4-fluoro-2-methylphenyl)-4-(2-hydroxyethylaminocarboxyloxy)piperidine were observed under the conditions of at 40° C./75% RH in a glass bottle with an open state for 4 weeks. […] Accordingly, improvement in stability according to crystallization could be confirmed.

[2] = Hygroscopicity by Dynamic Vapor Sorption; format: physicochemical; details: DVS-1, 25° C., relative humidity range 0 to 90%, 10 mg
Description: With regard to Type I and Type II crystalline forms of (2R,4S)-1-{N-(3,5-bistrifluoromethylbenzyl)-N-methyl}-aminocarbonyl-2-(4-fluoro-2-methylphenyl)-4-(2-hydroxy-ethylaminocarboxyloxy)piperidine, hygroscopicity was measured according to the following mentioned conditions.
Device: Dynamic Vapor Sorption device DVS-1 manufactured by Surface Measurement Systems, UK Amount of specimen: 10 mg Measured temperature: 25° C. Relative humidity range: 0 to 90% Experimental example 1 Neurokinin-1 (NK1) receptor binding inhibitory action Human lymphoblastoma IM-9 cells (5 10^6 cell/tube) were reacted with 0.3 nM [^3H] […] The reaction mixture was subjected to suction filtration with a GF/C glass filter which had previously been treated with 0.3% polyethyleneimine, washed with 0.3 ml of ice-cold reaction buffer containing no bovine serum albumin and various kinds of protein decomposition enzyme inhibitors twice, and radioactivity (dpm) on the filter was measured by a liquid scintillation counter. […]

[3] = molecular target: T1, human neurokinin-1 receptor (Homo sapiens, UniProt P25103); test: Neurokinin-1 (NK1) receptor binding inhibitory action, [3H](Sar9, Met11(O2)) Substance P on IM-9 cells
T1 construct: Human lymphoblastoma IM-9 cells (5 10^6 cell/tube) were reacted with 0.3 nM; endogenous in cells; host or cells: human lymphoblastoma IM-9 cells
T1 sequence (P25103 whole entry): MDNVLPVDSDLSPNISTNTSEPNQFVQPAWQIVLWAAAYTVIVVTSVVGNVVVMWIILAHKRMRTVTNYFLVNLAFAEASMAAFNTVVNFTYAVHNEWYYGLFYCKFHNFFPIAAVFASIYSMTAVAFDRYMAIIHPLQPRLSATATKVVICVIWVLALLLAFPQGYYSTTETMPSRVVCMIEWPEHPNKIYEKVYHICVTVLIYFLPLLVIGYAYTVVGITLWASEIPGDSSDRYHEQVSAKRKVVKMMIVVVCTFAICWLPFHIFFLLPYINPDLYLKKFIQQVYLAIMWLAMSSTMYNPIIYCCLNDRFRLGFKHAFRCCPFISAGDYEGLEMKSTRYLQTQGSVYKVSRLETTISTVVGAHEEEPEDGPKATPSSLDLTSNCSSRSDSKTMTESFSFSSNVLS
Source text: Measurements on the crystalline form of the present invention can be carried out, for example, according to the method described in European Journal of Pharmacology, vol. 254, pages 221-227 (1994) with respect to a neurokinin-1 receptor binding action, and according to the method described in European Journal of Pharmacology, vol. 265, pages 179-183 (1994) with respect to an action against a neurokinin-1 receptor […] inducing action, further according to the method described in Journal of Urology, vol.
Device: Dynamic Vapor Sorption device DVS-1 manufactured by Surface Measurement Systems, UK Amount of specimen: 10 mg Measured temperature: 25° C. Relative humidity range: 0 to 90% Experimental example 1 Neurokinin-1 (NK1) receptor binding inhibitory action Human lymphoblastoma IM-9 cells (5 10^6 cell/tube) were reacted with 0.3 nM [^3H] (Sar^9, Met^11 (O2)) Substance P and the prepared Type II crystalline form of (2R,4S)-1-{N-(3,5-bistrifluoromethylbenzyl)-N-methyl}aminocarbonyl-2-(4-fluoro-2-methylphenyl)-4-(2-hydroxyethylaminocarboxyloxy)-piperidine in 0.5 ml of 50 mM Tris-HCl (pH 7.4, 25° C.) containing 150 mM NaCl, 3 mM MnCl2, 40 μg/ml bacitracin, 4 μg/ml Leupeptin, 4 μg/ml Chymostatin, 4 μg/ml Phosphoramidon and 0.02% bovine serum albumin at room temperature for 60 minutes according to the method described in European Journal of Pharmacology, vol. 254, pp. 221-227 (1994). The reaction mixture was subjected to suction filtration with a GF/C glass filter which had previously been treated with 0.3% polyethyleneimine, washed with 0.3 ml of ice-cold reaction buffer containing no bovine serum albumin and various kinds of protein decomposition enzyme inhibitors twice, and radioactivity (dpm) on the filter was measured by a liquid scintillation counter. A specific binding amount was obtained by subtracting non-specific binding amount (L-703606 (10 μM) having NK1 receptor antagonistic action) from a total binding amount.

| change in appearance [1] | hygroscopicity (change in weight under high humidity conditions) [2] | pIC50 ([3]; Human lymphoblastoma IM-9 cells, 0.3 nM [3H](Sar9, Met11(O2)) Substance P, room temperature 60 minutes, read-out: IC50 value, NK1 receptor binding inhibition) | pKi ([3]; Human lymphoblastoma IM-9 cells, 0.3 nM [3H](Sar9, Met11(O2)) Substance P, room temperature 60 minutes, read-out: Ki value, NK1 receptor binding inhibition) | moisture absorption [1] | SMILES | neurokinin-1 receptor binding action (in words) ([3]; human NK1 receptor, IM-9 cells) |
| --- | --- | --- | --- | --- | --- | --- |
| no change in appearance | no hygroscopicity | – | – | – | Cc1cc(F)ccc1[C@H]1C[C@@H](OC(=O)NCCO)CCN1C(=O)N(C)Cc1cc(C(F)(F)F)cc(C(F)(F)F)c1 [Type I, (2R,4S)-1-{N-(3,5-bistrifluoromethylbenzyl)-N-methyl}aminocarbonyl-2-(4-fluoro-2-methylphenyl)-4-(2-hydroxyethylaminocarbonyloxy)piperidine] | – |
| no change in appearance | – | – | – | – | Cc1cc(F)ccc1[C@H]1C[C@@H](OC(=O)NCCO)CCN1C(=O)N(C)Cc1cc(C(F)(F)F)cc(C(F)(F)F)c1 [Type VII, (2R,4S)-1-{N-(3,5-bistrifluoromethylbenzyl)-N-methyl}aminocarbonyl-2-(4-fluoro-2-methylphenyl)-4-(2-hydroxyethylaminocarbonyloxy)piperidine] | – |
| no change in appearance | no hygroscopicity | 8.34 | 8.65 | – | Cc1cc(F)ccc1[C@H]1C[C@@H](OC(=O)NCCO)CCN1C(=O)N(C)Cc1cc(C(F)(F)F)cc(C(F)(F)F)c1 [Type II, (2R,4S)-1-{N-(3,5-bistrifluoromethylbenzyl)-N-methyl}aminocarbonyl-2-(4-fluoro-2-methylphenyl)-4-(2-hydroxyethylaminocarbonyloxy)piperidine] | inhibited said Substance P with concentration-dependently; also recorded: showed a human neurokinin-1 receptor binding action with concentration-dependently |

| SMILES | change in appearance [1] | hygroscopicity (change in weight under high humidity conditions) [2] | pIC50 ([3]; Human lymphoblastoma IM-9 cells, 0.3 nM [3H](Sar9, Met11(O2)) Substance P, room temperature 60 minutes, read-out: IC50 value, NK1 receptor binding inhibition) | pKi ([3]; Human lymphoblastoma IM-9 cells, 0.3 nM [3H](Sar9, Met11(O2)) Substance P, room temperature 60 minutes, read-out: Ki value, NK1 receptor binding inhibition) | moisture absorption [1] | neurokinin-1 receptor binding action (in words) ([3]; human NK1 receptor, IM-9 cells) |
| --- | --- | --- | --- | --- | --- | --- |
| Cc1cc(F)ccc1[C@H]1C[C@@H](OC(=O)NCCO)CCN1C(=O)N(C)Cc1cc(C(F)(F)F)cc(C(F)(F)F)c1 [amorphous, (2R,4S)-1-{N-(3,5-bistrifluoromethylbenzyl)-N-methyl}aminocarbonyl-2-(4-fluoro-2-methylphenyl)-4-(2-hydroxyethylaminocarbonyloxy)piperidine] | marked change in appearance (white powder→white lump) | – | – | – | moisture absorption was admitted | – |
